Key:
Type in all cases: cell-based, human
RPE cells [1] = experiment: Proliferation of RPE cells by cell counting; settings: 100-400 ng/ml
Protocol: (§1) FIG. 11. GRAND editing mediates precise large insertion in non-dividing cells. a, The proliferation of RPE cells at 6 h, 12 h, 24 h, 48 h after treated with 1 or 2.5 μM Palbociclib, or 100, 200, 400 ng/mL Nocodazole was determined by cell counting. b, The cell cycles of RPE cells were determined by propidium iodide staining. c, Detection of the nascent DNA synthesis in RPE cells by 5-ethynyl-2′-deoxyuridine (EdU) incorporation assay. The proportions of EdU-labeled positive cells were determined by flow cytometry. d, A 100 bp DNA fragment was inserted at EGFP (595-647) site in non-dividing RPE cells using GRAND editing. The accurate editing and imperfect events were quantified by deep sequencing. Mean±s.d. of n=3 independent biological replicates for a, b, d, and n=3-5 independent biological replicates for c.
(§2) To determine whether GRAND editing-mediated targeted insertion is cell cycle independent, we used small molecule drugs to arrest the cell cycle of human retinal pigment epithelium (RPE) cell line. Palbociclib, a Cdk4 and Cdk6 inhibitor, effectively arrests cells in G1 phase. […] Next, we conducted the GRAND editing on RPE cells with Palbociclib or Nocodazole treatment.

RPE cells [2] = experiment: Cell cycle of RPE cells, propidium iodide staining, flow cytometry
Protocol: as §1, §2

RPE cells [3] = experiment: EdU incorporation assay of nascent DNA synthesis in RPE cells
Protocol: as §1, §2

COC(=O)Nc1nc2ccc(C(=O)c3cccs3)cc2[nH]1 [Nocodazole]
growth of RPE cells (RPE cells [1]): fully inhibited
cell cycle arrest (RPE cells [2]): arrest at G2 phase
global DNA replication (EdU incorporation) (RPE cells [3]; at 24-48 hours): near fully inhibited replication
global DNA replication (EdU incorporation) (RPE cells [3]; at 12 hours): significantly suppressed global DNA replication

Source: US20240247257A1, “SYSTEM AND METHODS FOR INSERTION AND EDITING OF LARGE NUCLEIC ACID FRAGMENTS” (WUHAN UNIVERSITY, priority 2021, published 2024)
